The record followed here is patent publication US12083109B2, “Neurokinin antagonists and uses thereof” (California Institute of Technology, priority 2017, dated 2024).

Assay [1] concerns the target T1, Nk3R (Mus musculus, UniProt P47937).
T1 sequence (P47937 1-452): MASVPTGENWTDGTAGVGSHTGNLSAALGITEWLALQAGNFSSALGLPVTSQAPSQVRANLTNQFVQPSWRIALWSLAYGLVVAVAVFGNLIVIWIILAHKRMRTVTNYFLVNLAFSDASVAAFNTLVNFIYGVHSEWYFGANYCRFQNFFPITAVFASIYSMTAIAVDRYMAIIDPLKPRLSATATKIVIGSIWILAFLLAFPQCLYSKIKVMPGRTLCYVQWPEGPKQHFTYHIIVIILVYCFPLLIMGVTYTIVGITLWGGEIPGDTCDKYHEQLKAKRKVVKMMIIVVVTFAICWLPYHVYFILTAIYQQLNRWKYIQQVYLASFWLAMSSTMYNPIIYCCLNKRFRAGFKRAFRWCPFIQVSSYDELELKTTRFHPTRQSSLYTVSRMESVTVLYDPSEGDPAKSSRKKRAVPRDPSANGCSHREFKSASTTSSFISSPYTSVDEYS
Briefly: Looming disk assay (freezing, tail rattles, latency to orient), osanetant. The format is in vivo. As to conditions: for SIS-induced increased tail rattling (looming disk assay) / SIS-induced persistent (post) freezing to looming disk: SIS mice; for SIS-induced increased tail rattling (looming disk assay): acute systemic osanetant; for acute (and thereby persistent) freezing to innate threatening stimulus (looming disk): osanetant injection into CeA. More on the design: from tissue; host or cells: Living mice (wild-type C57Bl6/N males, Charles River). As to the method: Freezing behavior to presentation of an overhead looming disk proceeded as previously described (Kunwar et al., 2015; Yilmaz and Meister, 2013; incorporated by reference in their entirety). Briefly, mice were transported to a novel behavioral testing room. After 5 minutes of acclimation, mice were placed inside a novel, custom-built open top Plexiglas arena (48×48×30 cm) covered with a flat screen monitor placed directly above and with illumination provided by infrared LEDs (Marubeni). Mice were given a 5 minute baseline period in the arena, after which entry into the center of the arena triggered presentation of a single, 10 second overhead looming disk stimulus (comprised of a single looming disk presentation 0.5 seconds in duration, which was repeated 10 times with an inter-stimulus interval of 0.5 seconds). The stimulus was controlled by custom MATLAB code (M. Meister, Caltech) run on a dedicated computer in an adjacent room. Mice remained in the area for an additional 2 minutes before being transported back. Behavior was recorded using a video recorder attached to a laptop equipped with video capture software (Corel VideoStudio Pro). Acute freezing behavior to the looming disk (“during”) as well as in the 30 seconds following the last disk (“post”) were scored manually (Behavior Annotator, MATLAB) by an observer blind to environmental conditions.
(§1) Mice were administered the Nk3R antagonist osanetant (Axon Medchem, Axon 1533) either systemically or intra-brain region. Osanctant was dissolved in saline with 0.1% Tween 20 (vehicle). For systemic administration mice received an intraperitoneal (i.p.) injection (5 mg/kg) 20 minutes prior to behavioral testing. For microinfusions, guide cannulas were removed from mice and replaced with injector cannulas (Plastics One), which protruded 0.5 mm from the tip of the guide cannula. Injectors were attached to 5 μl Hamilton syringes with PE tubing (Plastics One) and mounted on a microinfusion pump (Harvard Apparatus) for controlled infusion of osanetant (0.3 μl vehicle with 375 ng dose per site injected over 6 minutes). For experiments using systemic administration of clozapine-N-oxide (CNO), CNO (Enzo Life Sciences-Biomol, BML-NS105-0005) was dissolved in saline (9 g/L NaCl) and injected (i.p.) at 5 mg/kg for hM4DREADD silencing or 2 mg/kg for hM3DREADD activation 20 minutes prior to behavioral testing. CNO was also administered chronically in drinking water (0.5 mg CNO/100 ml water).

In assay [2] the target is T1, Nk3R. Briefly: Acoustic startle response, osanetant. The format is in vivo. Also noted: from tissue; host or cells: Living mice (wild-type C57Bl6/N males, Charles River). To be noted: SIS mice; acute systemic osanetant; listed as Osanetant. As to the method:
as §1

SMILES strings stand for the structures. “Also recorded” adds a separate entry of the source.

Turning to `CC(=O)N(C)C1(c2ccccc2)CCN(CCC[C@]2(c3ccc(Cl)c(Cl)c3)CCCN(C(=O)c3ccccc3)C2)CC1` [osanetant, N-(1-{3-[(3R)-1-benzoyl-3-(3,4-dichlorophenyl)piperidin-3-yl]propyl}-4-phenylpiperidin-4-yl)-N-methylacetamide], the “SIS-induced increased tail rattling (looming disk assay)” value in assay [1] is reported as “attenuated”; in assay [1] (listed as Osanetant), “blocked”. Besides, the “SIS-induced persistent (post) freezing to looming disk” value in assay [1] (osanetant 5 mg/kg i.p. 20 min before test) is on record as “blocked”; in assay [1] (osanetant 5 mg/kg i.p. 20 min before test, listed as Osanetant), “attenuated”. The “freezing during presentation of looming disk (acute)” value in assay [1] (osanetant 5 mg/kg i.p. 20 min before test, between groups) was “no significant differences”. Moreover, in assay [1] (osanetant daily during two-week isolation, tested off-drug), the “persistent freezing to looming disk” value is “prevented”. The “acute (and thereby persistent) freezing to innate threatening stimulus (looming disk)” value in assay [1] was “reduced”; in assay [1] (listed as Osanetant), “selectively blocked”. For the same molecule, the “SIS-induced persistent freezing to looming disk” value in assay [1] (osanetant microinfusion into ACC or striatum) is given as “failed to yield significant effects; also recorded: No significant effects”; in assay [1] (osanetant microinfusion into dBNSTa, 375 ng per site, 20 min before test), “selectively inhibited”; in assay [1] (osanetant microinfusion into dBNSTa, 375 ng per site, 20 min before test, listed as Osanetant), “selectively blocked”. Besides, the “persistent responses to looming stimulus” value in assay [1] (osanetant microinfusion into DMH) is listed as “had no effect”. Moreover, the “SIS-induced enhanced acoustic startle responding” value in assay [2] was “blocked; also recorded: attenuated”.
